In experiment [1] the test system is Tx2783, an herbicide susceptible elite sorghum genotype. Kind of experiment: Greenhouse herbicide selection, spray on susceptible elite check. Format: in vivo, Sorghum bicolor (L.) Moench. An excerpt:
Seeds of 83 wild sorghum populations from Bolivia were planted in a greenhouse for comparison with Tx2783, an herbicide susceptible elite sorghum genotype. Wild sorghum genotypes were planted in flats containing MetroMix 360 potting soil (Sun Gro) and greenhouse grown. Tx2783 was planted with the wild accessions in each flat for comparison. In one selection using clethodim, plants were sprayed with 0.09 lb ai clethodim acre^−1 at 18 days after planting. […] In one selection using fluoazifop-P, flats with Tx2783 and wild accessions were sprayed with a rate of 0.12 lb ai fluazifop-P acre^−1 at 18 days after planting and with 0.36 lb ai fluazifop-P acre^−1 at 32 days after planting. […] In a third experiment, plants were sprayed with a rate of 0.05 lb ai quizalofop acre^−1 at 18 days after planting and with 0.11 lb ai quizalofop acre^−1 at 32 days after planting.

Experiment [2] has as its system Bol-71. The experiment is described as follows: Mode of inheritance greenhouse spray test, wild parent. Format: in vivo, sorghum. Particulars: 0.045 lb ai fluazifop-P acre^-1 at 14 days after planting, n=3. The method, then: (§1) The mode of inheritance of herbicide tolerance was determined by planting seeds of Bol-71, F1 generation of cross ATx623×Bol-71, and Pioneer 84G62 (herbicide susceptible control) in flats containing MetroMix 360 potting soil in a greenhouse using a randomized complete block design (n=3). The plants were sprayed with 0.045 lb ai fluazifop-P acre^−1 at 14 days after planting. Pioneer 84G62 died between 12-16 days after spraying.

The subject of experiment [3] is F1 generation of cross ATx623×Bol-71. The experiment is described as follows: Mode of inheritance greenhouse spray test, F1 hybrid. Format: in vivo, sorghum. Particulars: 0.045 lb ai fluazifop-P acre^-1 at 14 days after planting, n=3. The method, then: as §1
Experiment [4] has as its system Pioneer 84G62 (herbicide susceptible control). The experiment is described as follows: Mode of inheritance greenhouse spray test, susceptible control. It is filed as in vivo, sorghum. Conditions: 0.045 lb ai fluazifop-P acre^-1 at 14 days after planting, n=3. The method, then: as §1

The text below walks through data of patent publication US9617530B2, “Acetyl-CoA carboxylase herbicide resistant sorghum” (Kansas State University Research Foundation, Inc., priority 2007, dated 2017).

Turning to `CC(Oc1ccc(Oc2cnc3cc(Cl)ccc3n2)cc1)C(=O)O` (centres unmarked) [quizalofop], in experiment [1] (0.05 lb ai quizalofop acre^-1 at 18 days and 0.11 lb ai acre^-1 at 32 days after planting), the “plant outcome after spraying” value was “died”.
Consider `C[C@@H](Oc1ccc(Oc2ccc(C(F)(F)F)cn2)cc1)C(=O)O` [fluazifop-P], for which the “plant outcome after spraying” value in experiment [1] (0.12 lb ai fluazifop-P acre^-1 at 18 days and 0.36 lb ai acre^-1 at 32 days after planting) is reported as “died”. Also, the herbicide damage entry in experiment [2] and in experiment [3] was “no herbicide damage” in each case. Also, in experiment [4], the “time of plant death after spraying” value is given as 12-16 days after spraying.
